Each compound was assayed on RSV-A2-GFP (assay: RSV-A2-GFP viral replication assay). Settings: human respiratory syncytial virus, Calu-1, 96 h, read-out: RSV EC50, Calu-1 cells, RSV-A2-GFP MOI=1.2, 96 hrs, GFP-expressing cells counted.
Format: cell-based, Human Respiratory Syncytial Virus
Excerpt: GFP sequence was derived from pJTI™ R4 Dest CMV N-EmGFP pA Vector (Invitrogen) and was cloned into the intergenic sequence between wild-type RSV-A2 P and M genes using standard recombineering techniques. Recombinant RSV-A2-GFP was propagated in Hep2 cells (human cells contains HeLa marker chromosomes and were derived via HeLa contamination, ATCC CCL-23) with infection Multiplicity of Infection (MOI) of 0.1. Virus was harvested 3 days after infection by collecting all culture material and freeze-thaw the viral culture in liquid nitrogen for at least 5 times. To generating virus working stocks, thaw frozen samples in 37° C. water bath then centrifuge at 218 g for 15 min at 4° C. Add 1/10 of 10×SPG (Biological Industries 06-3061-01-5A), mix, aliquot supernatant, and quick-freeze in liquid nitrogen then transfer to −80° C. freezer for storage. Virus titer was determined by automated plaque assay in HEp-2 cells following methods described previously (Wen Z. et al.; J Virol Methods. 2019 January; 263:88-95).
Calu-1 cells (human lung epidermoid carcinoma, ATCC HTB-54) assay ready freezedown (ARF generation described separately) were used in assays. Compound plates were prepared by dispensing compounds dissolved in DMSO into wells of 384 well coming 3985 polystyrene flat clear bottom optical imaging microplates (202.5 nL/well) using an ECHO acoustic dispenser. Each compound was tested in a 10-point serial 3-fold dilution (typical final concentrations: 403 nM-0.02 nM and 40.3 nM-0.002 nM). […] To set up the assay, thaw ARF vial(s) in 37° C. water bath until small ice crystal remain and resuspend into assay media (DMEM containing 2% FBS, 100 U/ml Penicillin-Streptomycin). Count cells using default parameters on ViCell and dilute to 20,000 cells per ml in assay media. Add RSV GFP to cells at 24,000 pfu/ml (MOI=1.2). Mix by gentle inversion. 10 μl/well of 100% DMSO was dispensed to CellTiter-Glo (CTG) assay Max_E controls wells. Dispense cells at 50 μl/well using Bravo and 50 μl filtered tips into compound plates. Cover plates with MicroClime lids loaded with 7.5 ml of assay media to minimize evaporation. Incubate at 37 degrees C. and 5% CO2 for 96 hrs. Following incubation, distinct, GFP-expressing cells are counted using an Acumen imaging system with appropriate settings. A same-well CTG assay is performed by adding 10 μl/well reconstituted CellTiter-Glo reagent (Promega G7573) and reading plates on PerkinElmer Envision according to manufacturer's instructions. Raw data were loaded and analyzed in ActivityBase. Antiviral IC50 and cytotoxicity CC50 values were determined using a 4 parameter logistic fit based on the Levenberg-Marquardt algorithm. Model: 205-4 Parameter Logistic.
Calu-1 cells were purchased from ATCC (Cat #HTB-54) and are expanded in growth media (DMEM containing 10% FBS, 100 U/ml Penicillin-Streptomycin). To make ARF, remove and discard cell culture media, briefly rinse the cell layer with PBS to remove all traces of serum. Add 2.5 ml of TrypLE Express solution and incubate until cells dislodge, then add growth media and resuspend the cells by gentle pipetting. Count cells for concentration and determine viability using a ViCell. Centrifuge at RT, 300 g for 5 min to pellet cells. Gently aspirate supernatant, flick pellet to loosen cells. Resuspend cells in an appropriate volume of freezing medium (DMEM containing 10% DMSO, 10% FBS, 100 U/ml Penicillin-Streptomycin) to achieve 5×10^6/ml. Transfer 1 ml of cell suspension to freezing vials. Put vials to CoolCell cryopreservation container and place CoolCell container upright in a −80° C. freezer overnight before transferring vials to liquid nitrogen vapor for storage.
`Cn1nc(-c2cscn2)cc1C(=O)NCC(O)(c1cc2c(c(-c3ccc(F)cc3)n1)OCC2(C)C(N)=O)C(F)(F)F` (single isomer, unassigned) [Example 30-B, 7-(4-fluorophenyl)-3-methyl-5-(1,1,1-trifluoro-2-hydroxy-3-(1-methyl-3-(thiazol-4-yl)-1H-pyrazole-5-carboxamido)propan-2-yl)-2,3-dihydrofuro[2,3-c]pyridine-3-carboxamide] was tested, and the EC50 was under 10 nM. `Cn1nc(-n2cccn2)cc1C(=O)NCC(O)(c1cc(C(C)(C)N)cc(-c2ccc(F)cc2)n1)C1CC1` (single isomer, unassigned) [Example 35-B, N-(2-(4-(2-aminopropan-2-yl)-6-(4-fluorophenyl)pyridin-2-yl)-2-cyclopropyl-2-hydroxyethyl)-1′-methyl-1′H-[1,3′-bipyrazole]-5′-carboxamide] was tested, and the EC50 was under 10 nM. `Cn1nc(-n2cccn2)cc1C(=O)NCC(O)(c1cc(C(C)(C)N)cc(-c2ccc(F)cc2)n1)C(F)(F)F` (single isomer, unassigned) [Example 36-A, N-(2-(4-(2-aminopropan-2-yl)-6-(4-fluorophenyl)pyridin-2-yl)-3,3,3-trifluoro-2-hydroxypropyl)-1′-methyl-1′H-[1,3′-bipyrazole]-5′-carboxamide] gave an EC50 of under 10 nM. `Cn1nc(-n2cccn2)cc1C(=O)NCC(C)(O)c1cc(C(C)(C)N)cc(-c2ccc(C(F)(F)F)cc2)n1` (single isomer, unassigned) [Example 37-B, N-(2-(4-(2-aminopropan-2-yl)-6-(4-(trifluoromethyl)phenyl)pyridin-2-yl)-2-hydroxypropyl)-1′-methyl-1′H-[1,3′-bipyrazole]-5′-carboxamide] showed an EC50 of under 10 nM. Work on `Cn1nc(-n2cccn2)cc1C(=O)NCC(C)(O)c1cc(C(C)(C)N)cc(-c2ccc(F)c(F)c2)n1` (single isomer, unassigned) [Example 38-B, N-(2-(4-(2-aminopropan-2-yl)-6-(3,4-difluorophenyl)pyridin-2-yl)-2-hydroxypropyl)-1′-methyl-1′H-[1,3′-bipyrazole]-5′-carboxamide] yielded an EC50 of under 10 nM.

Same assay, conditions: read-out: RSV EC50; Calu-1 cells, RSV-A2-GFP MOI=1.2, 96 hrs, GFP-expressing cells counted
Work on `Cn1nc(-n2cccn2)cc1C(=O)NCC(C)(O)c1cc2c(c(-c3ccc(F)cc3)n1)OCC2(C)C(N)=O` (single isomer, unassigned) [Example 29-A, 7-(4-fluorophenyl)-5-(2-hydroxy-1-(1′-methyl-1′H-[1,3′-bipyrazole]-5′-carboxamido)propan-2-yl)-3-methyl-2,3-dihydrofuro[2,3-c]pyridine-3-carboxamide] yielded an EC50 of 10 to 100 nM. With `Cn1nc(-n2cccn2)cc1C(=O)NCC(C)(O)c1cc2c(c(-c3ccc(F)cc3)n1)OCC2(C)C(N)=O` (single isomer, unassigned) [Example 29-B, 7-(4-fluorophenyl)-5-(2-hydroxy-1-(1′-methyl-1′H-[1,3′-bipyrazole]-5′-carboxamido)propan-2-yl)-3-methyl-2,3-dihydrofuro[2,3-c]pyridine-3-carboxamide] the EC50 was over 100 nM. With `Cn1nc(-n2cccn2)cc1C(=O)NCC(C)(O)c1cc2c(c(-c3ccc(F)cc3)n1)OCC2(C)C(N)=O` (single isomer, unassigned) [Example 29-C, 7-(4-fluorophenyl)-5-(2-hydroxy-1-(1′-methyl-1′H-[1,3′-bipyrazole]-5′-carboxamido)propan-2-yl)-3-methyl-2,3-dihydrofuro[2,3-c]pyridine-3-carboxamide] the EC50 was under 10 nM. `Cn1nc(-n2cccn2)cc1C(=O)NCC(C)(O)c1cc2c(c(-c3ccc(F)cc3)n1)OCC2(C)C(N)=O` (single isomer, unassigned) [Example 29-D, 7-(4-fluorophenyl)-5-(2-hydroxy-1-(1′-methyl-1′H-[1,3′-bipyrazole]-5′-carboxamido)propan-2-yl)-3-methyl-2,3-dihydrofuro[2,3-c]pyridine-3-carboxamide] was tested, and the EC50 was 10 to 100 nM. In the case of `Cn1nc(-c2cscn2)cc1C(=O)NCC(C)(O)c1cc(C(C)(C)C(N)=O)cc(-c2ccc(F)cc2)n1` (single isomer, unassigned) [Example 31-A, N-(2-(4-(1-amino-2-methyl-1-oxopropan-2-yl)-6-(4-fluorophenyl)pyridin-2-yl)-2-hydroxypropyl)-1-methyl-3-(thiazol-4-yl)-1H-pyrazole-5-carboxamide], the EC50 is reported as over 100 nM. `Cn1nc(-c2cscn2)cc1C(=O)NCC(C)(O)c1cc(C(C)(C)C(N)=O)cc(-c2ccc(F)cc2)n1` (single isomer, unassigned) [Example 31-B, N-(2-(4-(1-amino-2-methyl-1-oxopropan-2-yl)-6-(4-fluorophenyl)pyridin-2-yl)-2-hydroxypropyl)-1-methyl-3-(thiazol-4-yl)-1H-pyrazole-5-carboxamide] gave an EC50 of under 10 nM. `Cn1nc(-c2cscn2)cc1C(=O)NCC(C)(O)c1cc(C(C)(C)O)cc(-c2ccc(F)cc2)n1` (single isomer, unassigned) [Example 32-A, N-(2-(6-(4-fluorophenyl)-4-(2-hydroxypropan-2-yl)pyridin-2-yl)-2-hydroxypropyl)-1-methyl-3-(thiazol-4-yl)-1H-pyrazole-5-carboxamide] gave an EC50 of over 100 nM. With `Cn1nc(-c2cscn2)cc1C(=O)NCC(C)(O)c1cc(C(C)(C)O)cc(-c2ccc(F)cc2)n1` (single isomer, unassigned) [Example 32-B, N-(2-(6-(4-fluorophenyl)-4-(2-hydroxypropan-2-yl)pyridin-2-yl)-2-hydroxypropyl)-1-methyl-3-(thiazol-4-yl)-1H-pyrazole-5-carboxamide] the EC50 was under 10 nM. Compound `CC(N)C(C)(C)c1cc(-c2ccc(F)cc2)nc(C(C)(O)CNC(=O)c2cc(-n3cccn3)nn2C)c1` (single isomer, unassigned) [Example 33-A, N-(2-(4-(3-amino-2-methylbutan-2-yl)-6-(4-fluorophenyl)pyridin-2-yl)-2-hydroxypropyl)-1′-methyl-1′H-[1,3′-bipyrazole]-5′-carboxamide] has an EC50 of over 100 nM. `CC(N)C(C)(C)c1cc(-c2ccc(F)cc2)nc(C(C)(O)CNC(=O)c2cc(-n3cccn3)nn2C)c1` (single isomer, unassigned) [Example 33-B, N-(2-(4-(3-amino-2-methylbutan-2-yl)-6-(4-fluorophenyl)pyridin-2-yl)-2-hydroxypropyl)-1′-methyl-1′H-[1,3′-bipyrazole]-5′-carboxamide] showed an EC50 of over 100 nM. In the case of `CC(N)C(C)(C)c1cc(-c2ccc(F)cc2)nc(C(C)(O)CNC(=O)c2cc(-n3cccn3)nn2C)c1` (single isomer, unassigned) [Example 33-C, N-(2-(4-(3-amino-2-methylbutan-2-yl)-6-(4-fluorophenyl)pyridin-2-yl)-2-hydroxypropyl)-1′-methyl-1′H-[1,3′-bipyrazole]-5′-carboxamide], the EC50 is reported as under 10 nM. For `CC(N)C(C)(C)c1cc(-c2ccc(F)cc2)nc(C(C)(O)CNC(=O)c2cc(-n3cccn3)nn2C)c1` (single isomer, unassigned) [Example 33-D, N-(2-(4-(3-amino-2-methylbutan-2-yl)-6-(4-fluorophenyl)pyridin-2-yl)-2-hydroxypropyl)-1′-methyl-1′H-[1,3′-bipyrazole]-5′-carboxamide], the EC50 was under 10 nM. `Cn1nc(-n2cccn2)cc1C(=O)NCC(O)c1cc(C(C)(C)N)cc(-c2ccc(F)cc2)n1` (single isomer, unassigned) [Example 34-A, N-(2-(4-(2-aminopropan-2-yl)-6-(4-fluorophenyl)pyridin-2-yl)-2-hydroxyethyl)-1′-methyl-1′H-[1,3′-bipyrazole]-5′-carboxamide] gave an EC50 of under 10 nM. Work on `Cn1nc(-n2cccn2)cc1C(=O)NCC(O)c1cc(C(C)(C)N)cc(-c2ccc(F)cc2)n1` (single isomer, unassigned) [Example 34-B, N-(2-(4-(2-aminopropan-2-yl)-6-(4-fluorophenyl)pyridin-2-yl)-2-hydroxyethyl)-1′-methyl-1′H-[1,3′-bipyrazole]-5′-carboxamide] yielded an EC50 of over 100 nM.
